Experimental data as given in US20260115346A1, “METHOD AND DEVICE FOR DI[…]/OR S[…]” (SCHWING TECHNOLOGIES GMBH, priority 2022, published 2026).

Assays:
[1] = test system: human patellar tendon allografts; conditions: in vitro study; cited from earlier work
germs = test: Disinfection and sterilization process on various objects, number of germs after treatment; conditions: 55° C., 20 mbar; for Number of germs/m^3 after disinfection: 1.5 g/m^3 PES, 15 min; for Number of germs/m^3 after sterilization: 4 g/m^3 PES, 30 min
Experimental: Various objects were treated with the method according to the invention in order to disinfect and sterilize them.
The following process parameters were used in the disinfection process:
The following process parameters were used in the sterilization process: […]

[2] = test system: spores of the bacterium Geobacillus stearothermophilis; test: Validation tests for disinfection of laboratory utensils dripped with spore suspension SAL 10^6; type: cell-based, Geobacillus stearothermophilus; conditions: for Biological result #not sterile/#tested: PES in solution 4%
[3] = test system: spores of the bacterium Geobacillus stearothermophilis; test: Validation tests for disinfection of spore strips SAL 10^5; type: cell-based, Geobacillus stearothermophilus; conditions: for Biological result #not sterile/#tested: 50-55° C.
[4] = object: Mobile electronic display device

CC(=O)OO [PES, peracetic acid]
cytotoxic or pro-inflammatory effect [1]: no cytotoxic or pro-inflammatory effect | Number of germs/m^3 after disinfection (germs; object: FFP mask): 1220 germs/m^3 | Number of germs/m^3 after sterilization (germs; object: FFP mask): germ-free | Number of germs/m^3 after disinfection (germs; object: Infusomat): 1160 germs/m^3 | Number of germs/m^3 after sterilization (germs; object: Infusomat): germ-free | Number of germs/m^3 after disinfection (germs; object: MNS): 870 germs/m^3 | Number of germs/m^3 after sterilization (germs; object: MNS): germ-free | Number of germs/m^3 after disinfection (germs; [4]): 430 germs/m^3 | Number of germs/m^3 after sterilization (germs; [4]): germ-free | Number of germs/m^3 after disinfection (germs; object: Surgical clogs): 1370 germs/m^3 | Number of germs/m^3 after sterilization (germs; object: Surgical clogs): germ-free | Number of germs/m^3 after disinfection (germs; object: blower filter unit): 1740 germs/m^3 | Number of germs/m^3 after sterilization (germs; object: blower filter unit): germ-free | Number of germs/m^3 after disinfection (germs; object: disposable gloves): 920 germs/m^3 | Number of germs/m^3 after sterilization (germs; object: disposable gloves): germ-free | Number of germs/m^3 after disinfection (germs; object: protective overalls): 270 germs/m^3 | Number of germs/m^3 after sterilization (germs; object: protective overalls): germ-free | Number of germs/m^3 after disinfection (germs; object: visor): 360 germs/m^3 | Number of germs/m^3 after sterilization (germs; object: visor): germ-free | Biological result #not sterile/#tested ([2]; test 5, 1.9 g/m^3 PES in process chamber, 120 min, growth after seven days): 0/4 | Biological result #not sterile/#tested ([2]; test 7, 1.9 g/m^3 PES in process chamber, 60 min, growth after seven days): 0/4 | Biological result #not sterile/#tested ([2]; test 8, 1.9 g/m^3 PES in process chamber, 45 min, growth after seven days): 0/4 | Biological result #not sterile/#tested ([2]; test 12, 1.9 g/m^3 PES in process chamber, 15 min, growth after seven days): 0/4 | Biological result #not sterile/#tested ([2]; test 13, 1.9 g/m^3 PES in process chamber, 10 min, growth after seven days): 0/4 | Biological result #not sterile/#tested ([2]; test 14, 1.9 g/m^3 PES in process chamber, 5 min, growth after seven days): 0/4 | Biological result #not sterile/#tested ([2]; test 15, 1.7 g/m^3 PES in process chamber, 20 min, growth after seven days): 0/4 | Biological result #not sterile/#tested ([2]; test 16, 1.7 g/m^3 PES in process chamber, 15 min, growth after seven days): 0/4 | Biological result #not sterile/#tested ([2]; test 19, 1.3 g/m^3 PES in process chamber, 20 min, growth after seven days): 0/4 | Biological result #not sterile/#tested ([2]; test 20, 1.3 g/m^3 PES in process chamber, 15 min, growth after seven days): 0/4 | Biological result #not sterile/#tested ([2]; test 21, 0.94 g/m^3 PES in process chamber, 60 min, growth after seven days): 0/4 | Biological result #not sterile/#tested ([2]; test 22, 0.94 g/m^3 PES in process chamber, 40 min, growth after seven days): 0/4 | Biological result #not sterile/#tested ([2]; test 23, 0.94 g/m^3 PES in process chamber, 30 min, not sterile: pipette): (pipette) 1/8 | Biological result #not sterile/#tested ([2]; test 24, 0.94 g/m^3 PES in process chamber, 20 min, growth after seven days): 0/8 | Biological result #not sterile/#tested ([2]; test 25, 0.94 g/m^3 PES in process chamber, 15 min, not sterile: pipette): (pipette) 1/4 | Biological result #not sterile/#tested ([2]; test 26, 0.94 g/m^3 PES in process chamber, 10 min, growth after seven days): 0/4 | Biological result #not sterile/#tested ([2]; test 27, 0.94 g/m^3 PES in process chamber, 5 min, not sterile: pipette): (pipette) 1/4 | Biological result #not sterile/#tested ([2]; test 28, 0.47 g/m^3 PES in process chamber, 60 min, growth after seven days): 0/4 | Biological result #not sterile/#tested ([2]; test 29, 0.47 g/m^3 PES in process chamber, 30 min, growth after seven days): 0/4 | Biological result #not sterile/#tested ([2]; test 30, 0.47 g/m^3 PES in process chamber, 15 min, not sterile: Eppi): (Eppi) 1/4 | Biological result #not sterile/#tested ([2]; test 31, 0.47 g/m^3 PES in process chamber, 10 min, not sterile: pipette): (pipette) 1/4 | Biological result #not sterile/#tested ([2]; test 32, 0.47 g/m^3 PES in process chamber, 5 min, not sterile: mask, pipette): (mask, pipette) 2/4 | growth of the spores after seven days in nutrient solution ([2]; various experiments, relatively low PES concentration in the process chamber, short process duration): spore growth was observed after seven days | subsequent growth or multiplication of the spores ([3]; all the spore strips tested at different PES concentrations and different process times): No subsequent growth or multiplication of the spores could be detected | Biological result #not sterile/#tested ([3]; test 1, PES in solution 6%, 3 g/m^3 PES in process chamber, 240 min): 0/2 | Biological result #not sterile/#tested ([3]; test 2, PES in solution 6%, 3 g/m^3 PES in process chamber, 120 min): 0/1 | Biological result #not sterile/#tested ([3]; test 3, PES in solution 6%, 1.7 g/m^3 PES in process chamber, 150 min): 0/2 | Biological result #not sterile/#tested ([3]; test 4, PES in solution 4%, 2 g/m^3 PES in process chamber, 120 min): 0/1 | Biological result #not sterile/#tested ([3]; test 5, PES in solution 4%, 1.9 g/m^3 PES in process chamber, 120 min): 0/2 | Biological result #not sterile/#tested ([3]; test 6, PES in solution 4%, 1.9 g/m^3 PES in process chamber, 90 min): 0/2 | Biological result #not sterile/#tested ([3]; test 7, PES in solution 4%, 1.9 g/m^3 PES in process chamber, 60 min): 0/4 | Biological result #not sterile/#tested ([3]; test 8, PES in solution 4%, 1.9 g/m^3 PES in process chamber, 45 min): 0/1 | Biological result #not sterile/#tested ([3]; test 9, PES in solution 4%, 1.9 g/m^3 PES in process chamber, 40 min): 0/2 | Biological result #not sterile/#tested ([3]; test 10, PES in solution 4%, 1.9 g/m^3 PES in process chamber, 30 min): 0/2 | Biological result #not sterile/#tested ([3]; test 11, PES in solution 4%, 1.9 g/m^3 PES in process chamber, 20 min): 0/2 | Biological result #not sterile/#tested ([3]; test 12, PES in solution 4%, 1.9 g/m^3 PES in process chamber, 15 min): 0/1 | Biological result #not sterile/#tested ([3]; test 13, PES in solution 4%, 1.9 g/m^3 PES in process chamber, 10 min): 0/1 | Biological result #not sterile/#tested ([3]; test 14, PES in solution 4%, 1.9 g/m^3 PES in process chamber, 5 min): 0/1 | Biological result #not sterile/#tested ([3]; test 15, PES in solution 4%, 1.7 g/m^3 PES in process chamber, 20 min): 0/1 | Biological result #not sterile/#tested ([3]; test 16, PES in solution 4%, 1.7 g/m^3 PES in process chamber, 15 min): 0/1 | Biological result #not sterile/#tested ([3]; test 17, PES in solution 4%, 1.5 g/m^3 PES in process chamber, 240 min): 0/2 | Biological result #not sterile/#tested ([3]; test 18, PES in solution 4%, 1.5 g/m^3 PES in process chamber, 150 min): 0/2 | Biological result #not sterile/#tested ([3]; test 19, PES in solution 4%, 1.3 g/m^3 PES in process chamber, 20 min): 0/1 | Biological result #not sterile/#tested ([3]; test 20, PES in solution 4%, 1.3 g/m^3 PES in process chamber, 15 min): 0/1 | Biological result #not sterile/#tested ([3]; test 21, PES in solution 4%, 0.94 g/m^3 PES in process chamber, 60 min): 0/5 | Biological result #not sterile/#tested ([3]; test 22, PES in solution 4%, 0.94 g/m^3 PES in process chamber, 40 min): 0/1 | Biological result #not sterile/#tested ([3]; test 23, PES in solution 4%, 0.94 g/m^3 PES in process chamber, 30 min): 0/2 | Biological result #not sterile/#tested ([3]; test 24, PES in solution 4%, 0.94 g/m^3 PES in process chamber, 20 min): 0/2 | Biological result #not sterile/#tested ([3]; test 25, PES in solution 4%, 0.94 g/m^3 PES in process chamber, 15 min): 0/1 | Biological result #not sterile/#tested ([3]; test 26, PES in solution 4%, 0.94 g/m^3 PES in process chamber, 10 min): 0/1 | Biological result #not sterile/#tested ([3]; test 27, PES in solution 4%, 0.94 g/m^3 PES in process chamber, 5 min): 0/1 | Biological result #not sterile/#tested ([3]; test 28, PES in solution 4%, 0.47 g/m^3 PES in process chamber, 60 min): 0/1 | Biological result #not sterile/#tested ([3]; test 29, PES in solution 4%, 0.47 g/m^3 PES in process chamber, 30 min): 0/1 | Biological result #not sterile/#tested ([3]; test 30, PES in solution 4%, 0.47 g/m^3 PES in process chamber, 15 min): 0/1 | Biological result #not sterile/#tested ([3]; test 31, PES in solution 4%, 0.47 g/m^3 PES in process chamber, 10 min): 0/1 | Biological result #not sterile/#tested ([3]; test 32, PES in solution 4%, 0.47 g/m^3 PES in process chamber, 5 min): 0/1
